Experiments:
[1] = molecular target: T1, Beta-2 adrenergic receptor (Rattus norvegicus, UniProt P10608); assay: Compound was evaluated for its binding affinity towards Beta-2 adrenergic receptor in rat soleus membrane by displacing […]; assay type: cell membranes
[2] = molecular target: T1, Beta-2 adrenergic receptor
Description: In vitro beta-adrenergic activity against beta-1 adrenergic receptor by the inhibition of insulin stimulated [14C]- glucose incorporation into glycogen in isolated rat soleus muscle

[3] = molecular target: Beta-1 adrenergic receptor (Rattus norvegicus, UniProt P18090); assay: Compound was evaluated for its binding affinity towards Beta-1 adrenergic receptor in rat heart membrane by displacing [125I]- iodocyanopindolol; assay type: cell membranes
Chain of Beta-1 adrenergic receptor (P18090 whole entry): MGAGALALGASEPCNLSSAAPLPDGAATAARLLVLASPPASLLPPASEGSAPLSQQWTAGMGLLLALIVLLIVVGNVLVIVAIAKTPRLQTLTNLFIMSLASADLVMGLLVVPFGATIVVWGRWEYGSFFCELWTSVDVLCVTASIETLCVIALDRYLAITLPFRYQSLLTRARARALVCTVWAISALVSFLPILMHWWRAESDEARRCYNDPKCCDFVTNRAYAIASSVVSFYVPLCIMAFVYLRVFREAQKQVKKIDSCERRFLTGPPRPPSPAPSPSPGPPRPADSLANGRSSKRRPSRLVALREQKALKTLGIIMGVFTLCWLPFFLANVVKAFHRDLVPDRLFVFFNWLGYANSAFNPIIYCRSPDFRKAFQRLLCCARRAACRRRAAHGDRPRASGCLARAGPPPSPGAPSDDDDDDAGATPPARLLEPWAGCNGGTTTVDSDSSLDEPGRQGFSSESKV

[4] = molecular target: Beta-3 adrenergic receptor (Rattus norvegicus, UniProt P26255); assay: In vitro beta-adrenergic activity against beta-3 adrenergic receptor in rat epididymal fat pads by stimulation of glycerol release from adipocytes.; assay type: functional, tissue-based, Epididymal fat pad
Chain of Beta-3 adrenergic receptor (P26255 whole entry): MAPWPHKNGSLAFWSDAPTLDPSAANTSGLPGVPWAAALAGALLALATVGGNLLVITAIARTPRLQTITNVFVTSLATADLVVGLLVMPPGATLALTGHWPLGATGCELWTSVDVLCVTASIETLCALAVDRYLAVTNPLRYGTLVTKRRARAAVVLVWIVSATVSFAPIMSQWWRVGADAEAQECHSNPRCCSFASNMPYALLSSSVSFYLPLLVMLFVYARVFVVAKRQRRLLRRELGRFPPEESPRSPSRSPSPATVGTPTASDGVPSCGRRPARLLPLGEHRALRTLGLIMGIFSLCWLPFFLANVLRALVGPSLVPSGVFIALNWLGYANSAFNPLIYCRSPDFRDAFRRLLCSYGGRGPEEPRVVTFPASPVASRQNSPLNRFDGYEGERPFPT

T1 sequence (P10608 whole entry): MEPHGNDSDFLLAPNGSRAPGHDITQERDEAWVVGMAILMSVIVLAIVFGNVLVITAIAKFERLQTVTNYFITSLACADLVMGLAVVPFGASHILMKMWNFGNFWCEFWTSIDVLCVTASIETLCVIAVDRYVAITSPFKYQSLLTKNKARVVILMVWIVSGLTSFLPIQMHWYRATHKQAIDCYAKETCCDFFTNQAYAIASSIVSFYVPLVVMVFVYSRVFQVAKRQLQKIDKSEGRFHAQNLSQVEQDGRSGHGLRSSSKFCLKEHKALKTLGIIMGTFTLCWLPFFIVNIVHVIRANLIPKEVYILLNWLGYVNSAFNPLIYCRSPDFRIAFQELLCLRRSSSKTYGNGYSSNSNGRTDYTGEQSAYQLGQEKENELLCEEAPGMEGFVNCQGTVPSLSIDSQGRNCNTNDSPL

`C[C@H](Cc1ccc(OCC(=O)O)cc1)NC[C@H](O)c1cccc(Cl)c1` was tested, and the IC50 [1] was 1300 nM and the IC50 [2] was 190 nM.
`COC(=O)COc1ccc(C[C@@H](C)NC[C@H](O)c2cccc(Cl)c2)cc1` was tested, and the IC50 [3] was 59 nM, the EC50 [4] was 16 nM and the IC50 [1] was 30 nM. For the same compound, the IC50 [2] was 500 nM.

Reference: ChEMBL document CHEMBL1125527, “Disodium (R,R)-5-[2-[[2-(3-chlorophenyl)-2-hydroxyethyl]-amino] propyl]-1,3-benzodioxole-2,2-dicarboxylate (CL 316,243). A potent beta-adrenergic agonist virtually specific for beta 3 receptors. A promising antidiabetic and antiobesity agent” (J Med Chem, 1992)
